# Laboratory results taken from the supplement of paper PMC11061612.
# How the values were obtained:
# [1] = test system: SUP-T1 (T-Lymphoblastic Leukemia); assay: combination Emax (second highest fraction inhibited in the dose matrix, 72 h); higher = more inhibition; extreme values may be limits of the assay
# Summary of the method: (§1)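 Cell lines grown in DMEM/F12 or RPMI with 10% FBS were plated in 1536-well plates and held 24 hours at 37°C, 5% CO2 before 72 hours of exposure to two-drug dose matrices, with DMSO typically at 0.2%. CellTiter-Glo 2.0 luminescence gave viability, which was converted to inhibition. Vehicle wells were set to 0 and blank wells to 1. Combination Emax is the second-highest inhibition in the matrix, and Bliss excess is the observed combination effect minus the expected EA + EB − EA·EB, where EA and EB are the single-agent effects.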
# NCI-H28 (Mesothelioma) = assay: as above
# Summary of the method: as §1
# [2] = test system: HO-1-u-1 (Oral Cavity Carcinoma); assay: as above
# Summary of the method: as §1
# [3] = test system: SW1116 (Colorectal Carcinoma); assay: as above
# Summary of the method: as §1
# [4] = test system: K5 (Thyroid Gland Carcinoma); assay: as above
# Summary of the method: as §1
# [5] = test system: NCI-H69 (Small Cell Lung Carcinoma); assay: as above
# Summary of the method: as §1
# NB14 (Neuroblastoma) [6] = assay: as above
# Summary of the method: as §1
# [7] = test system: Hs-633T (Other Solid Carcinomas); assay: as above
# Summary of the method: as §1
# Mewo (Melanoma) = assay: as above
# Summary of the method: as §1
# NCI-H2795 (Mesothelioma) = assay: as above
# Summary of the method: as §1
# [8] = test system: SK-OV-3 (Ovarian Carcinoma); assay: Bliss excess, mean over the matrix (fraction); higher = more synergy
# Summary of the method: as §1
# [9] = test system: SUP-T1 (T-Lymphoblastic Leukemia); assay: as above
# Summary of the method: as §1
# [10] = test system: K5 (Thyroid Gland Carcinoma); assay: as above
# Summary of the method: as §1
# [11] = test system: PCI-30 (Head and Neck Carcinoma); assay: as above
# Summary of the method: as §1
# [12] = test system: SW1271 (Small Cell Lung Carcinoma); assay: as above
# Summary of the method: as §1
# [13] = test system: RKO (Colorectal Carcinoma); assay: as above
# Summary of the method: as §1
# [14] = test system: EN (Endometrial Carcinoma); assay: as above
# Summary of the method: as §1
# [15] = test system: HDLM-2 (Hodgkin's Lymphoma); assay: as above
# Summary of the method: as §1
# [16] = test system: HARA (Squamous Cell Lung Carcinoma); assay: as above
# Summary of the method: as §1
# NB14 (Neuroblastoma) [17] = assay: as above
# Summary of the method: as §1
# 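For Bliss excess, mean over the matrix in this document: after 72 h of two-drug dosing.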
Compound,combination Emax [1],combination Emax (NCI-H28 (Mesothelioma)),combination Emax [2],combination Emax [3],combination Emax [4],combination Emax [5],combination Emax (NB14 (Neuroblastoma) [6]),combination Emax [7],combination Emax (Mewo (Melanoma)),combination Emax (NCI-H2795 (Mesothelioma)),Bliss excess [8],Bliss excess [9],Bliss excess [10],Bliss excess [11],Bliss excess [12],Bliss excess [13],Bliss excess [14],Bliss excess [15],Bliss excess [16],Bliss excess (NB14 (Neuroblastoma) [17])
"C=CCn1c(=O)c2cnc(Nc3ccc(N4CCN(C)CC4)cc3)nc2n1-c1cccc(C(C)(C)O)n1 [AZD1775] + Nc1ccn([C@@H]2O[C@H](CO)[C@@H](O)C2(F)F)c(=O)n1 [Gemcitabine] (first compound max 1 µM, partner max 0.3 µM)",0.862,0.685,0.693,0.405,0.568,0.611,1,0.863,0.583,0.785,-0.0635,-0.047,-0.0194,0.0252,-0.0558,-0.0367,-0.0552,-0.0627,0.0187,–
"CN(CCO)CC[C@H](CSc1ccccc1)Nc1ccc(S(=O)(=O)NC(=O)c2ccc(N3CCC([C@@H](O)c4ccccc4-c4ccc(Cl)cc4)CC3)cc2)cc1S(=O)(=O)C(F)(F)F [AZD4320] + CC(=O)O[C@H]1C(=O)[C@@]2(C)[C@H]([C@H](OC(=O)c3ccccc3)[C@]3(O)C[C@H](OC(=O)[C@H](O)[C@@H](NC(=O)c4ccccc4)c4ccccc4)C(C)=C1C3(C)C)[C@]1(OC(C)=O)CO[C@@H]1C[C@@H]2O [Paclitaxel] (first compound max 1 µM, 7x7, partner max 3 µM)",0.852,0.823,0.965,0.586,0.94,0.991,1,1,0.78,0.837,0.254,-0.024,0.0018,0.177,0.108,0.0012,0.068,0.0159,0.0253,0.0064
"CN(CCO)CC[C@H](CSc1ccccc1)Nc1ccc(S(=O)(=O)NC(=O)c2ccc(N3CCC([C@@H](O)c4ccccc4-c4ccc(Cl)cc4)CC3)cc2)cc1S(=O)(=O)C(F)(F)F [AZD4320] + CS(=O)(=O)CCNCc1ccc(-c2ccc3ncnc(Nc4ccc(OCc5cccc(F)c5)c(Cl)c4)c3c2)o1 [Lapatinib] (first compound max 1 µM, 7x7, partner max 10 µM)",0.866,0.826,0.983,0.823,0.355,0.997,0.993,0.452,0.492,0.71,-0.0007,0.0226,0.0213,0.0067,-0.0178,0.0405,-0.0532,-0.0018,0.027,0.0356
"CN(CCO)CC[C@H](CSc1ccccc1)Nc1ccc(S(=O)(=O)NC(=O)c2ccc(N3CCC([C@@H](O)c4ccccc4-c4ccc(Cl)cc4)CC3)cc2)cc1S(=O)(=O)C(F)(F)F [AZD4320] + C[C@@H](Nc1cc(F)cc(F)c1)c1cc(C(=O)N(C)C)cc2c(=O)cc(N3CCOCC3)oc12 [AZD8186] (first compound max 1 µM, 7x7, partner max 3 µM)",0.887,0.297,0.369,0.275,0.619,0.885,1,0.503,0.332,0.779,0.0008,-0.0192,-0.0505,-0.0503,-0.0447,-0.0164,-0.0377,0.0434,0.0233,0.0025
"CN(CCO)CC[C@H](CSc1ccccc1)Nc1ccc(S(=O)(=O)NC(=O)c2ccc(N3CCC([C@@H](O)c4ccccc4-c4ccc(Cl)cc4)CC3)cc2)cc1S(=O)(=O)C(F)(F)F [AZD4320] + Nc1ccn([C@@H]2O[C@H](CO)[C@@H](O)C2(F)F)c(=O)n1 [Gemcitabine] (first compound max 1 µM, 7x7, partner max 0.3 µM)",0.846,0.797,0.563,0.184,0.688,0.946,0.993,0.992,0.451,0.872,-0.0695,0.0225,0.0121,-0.0272,0.0692,-0.0195,-0.0382,0.0204,-0.0498,0.0314
"Cc1c2c(nn1C)CSCc1cc(n(C)n1)CSc1cc(c3ccccc3c1)OCCCc1c(C(=O)O)n(C)c3c-2c(Cl)ccc13 [AZD5991] + CC(=O)O[C@H]1C(=O)[C@@]2(C)[C@H]([C@H](OC(=O)c3ccccc3)[C@]3(O)C[C@H](OC(=O)[C@H](O)[C@@H](NC(=O)c4ccccc4)c4ccccc4)C(C)=C1C3(C)C)[C@]1(OC(C)=O)CO[C@@H]1C[C@@H]2O [Paclitaxel] (first compound max 1 µM, 7x7, partner max 3 µM)",0.744,0.469,0.752,0.438,0.846,0.89,1,0.95,0.692,0.943,-0.028,-0.0847,-0.0361,0.115,-0.0228,0.0203,0.149,0.0128,-0.003,-0.0212
"Cc1c2c(nn1C)CSCc1cc(n(C)n1)CSc1cc(c3ccccc3c1)OCCCc1c(C(=O)O)n(C)c3c-2c(Cl)ccc13 [AZD5991] + CS(=O)(=O)CCNCc1ccc(-c2ccc3ncnc(Nc4ccc(OCc5cccc(F)c5)c(Cl)c4)c3c2)o1 [Lapatinib] (first compound max 1 µM, 7x7, partner max 10 µM)",0.488,0.337,0.713,0.395,0.237,0.443,0.936,0.206,0.481,0.877,0.0591,-0.0863,-0.0063,0.0446,-0.0749,0.0196,-0.0129,0.0262,0.0632,0.0335
"Cc1c2c(nn1C)CSCc1cc(n(C)n1)CSc1cc(c3ccccc3c1)OCCCc1c(C(=O)O)n(C)c3c-2c(Cl)ccc13 [AZD5991] + Nc1ccn([C@@H]2O[C@H](CO)[C@@H](O)C2(F)F)c(=O)n1 [Gemcitabine] (first compound max 1 µM, 7x7, partner max 0.3 µM)",0.77,0.684,0.378,0.203,0.544,0.457,0.853,0.837,0.465,0.869,-0.0401,-0.0332,-0.045,-0.0531,-0.0354,-0.0368,-0.0535,0.0014,-0.0107,-0.0213
"C[C@@H]1COCCN1c1cc(C2([S@](C)(=N)=O)CC2)nc(-c2ccnc3[nH]ccc23)n1 [AZD6738] + C1CC(C1)(C(=O)[O-])C(=O)[O-].N.N.[Pt+2] [Carboplatin] (first compound max 10 µM, 7x7, partner max 10 µM)",0.719,0.479,0.75,0.247,0.517,0.373,0.952,0.836,0.526,0.573,-0.0788,-0.0298,-0.0728,-0.0362,-0.0547,-0.0594,-0.0335,0.0001,-0.0226,-0.0044
"C[C@@H]1COCCN1c1cc(C2([S@](C)(=N)=O)CC2)nc(-c2ccnc3[nH]ccc23)n1 [AZD6738] + Nc1ccn([C@@H]2O[C@H](CO)[C@@H](O)C2(F)F)c(=O)n1 [Gemcitabine] (first compound max 10 µM, 7x7, partner max 0.3 µM)",0.852,0.695,0.926,0.553,0.778,0.851,1,0.937,0.768,0.874,0.0331,0.0041,0.034,0.0539,0.004,-0.0088,0.0613,0.0754,0.0343,0.04
"Cc1cc2ncnn2cc1Nc1ncc2c(n1)n(C1CCOCC1)c(=O)n2C [AZD7648] + COc1cc([C@@H]2c3cc4c(cc3[C@@H](O[C@@H]3O[C@@H]5CO[C@@H](C)O[C@H]5[C@H](O)[C@H]3O)[C@H]3COC(=O)[C@H]23)OCO4)cc(OC)c1O [Etoposide] (first compound max 10 µM, 7x7, partner max 10 µM)",0.85,0.425,0.866,0.192,0.64,0.67,0.912,0.842,0.71,0.686,-0.0497,0.07,0.1,0.0768,0.0441,0.135,0.0565,-0.0015,0.105,0.0704
"C[C@@H](Nc1cc(F)cc(F)c1)c1cc(C(=O)N(C)C)cc2c(=O)cc(N3CCOCC3)oc12 [AZD8186] + C1CN(CCC1(C(=O)N[C@@H](CCO)C2=CC=C(C=C2)Cl)N)C3=NC=NC4=C3C=CN4 [AZD5363] (first compound max 10 µM, 7x7, partner max 10 µM)",0.553,0.359,0.752,0.206,0.466,0.536,0.213,0.297,0.345,0.409,-0.064,-0.0718,-0.062,-0.0443,-0.0388,0.0284,0.0157,-0.0194,-0.0301,-0.0318
